Assay results published in US20060252740A1 (priority 2005, published 2006).

How the values were obtained:
[1] = tested on: patients with advanced malignancies incl. metastatic melanoma; settings: cited from earlier work
[2] = tested on: patients with solid tumors and lymphomas; settings: cited from earlier work
[3] = tested on: SKBr3 breast cancer cells; settings: cited from earlier work
MEXF 276L melanoma cells = settings: cited from earlier work
NSCLC cells = settings: cited from earlier work
leukemia cells = settings: cited from earlier work
[4] = tested on: diffuse GFP positive MM lesions; settings: SCID/NOD mice; cited from earlier work
[5] = tested on: patients with advanced solid tumors; settings: cited from earlier work
clinical = assay: clinical
Description: PK assessments included the following tests. […] The total number of PK samples collected was approximately 115 mL of whole blood (7-8 tablespoons). If a patient experienced a potentially drug-related SAE, additional PK samples were collected. Blood was drawn from the contralateral arm to the infusion site using an indwelling catheter to avoid multiple needle sticks. […] The blood tube was inverted several times and the tube placed in wet ice immediately pending separation of the plasma. If a catheter was used for blood collection, the fluid in the catheter was completely withdrawn prior to each sample collection and discarded. Plasma samples were kept on wet ice during collection and centrifugation. Plasma samples were split into two cryovials prior to freezing at −70° C.

[6] = Dose limiting toxicity and drug-related toxicities in dose-escalating clinical trial; type: in vivo, human; settings: twice weekly for two out of three weeks (Days 1, 4, 8, 11; 21 day cycle)
Description: Eighteen patients were treated in accordance with this protocol.

[7] = tested on: colon adenocarcinoma cells; settings: cited from earlier work
cytochrome P450 enzymes = assay: In vitro metabolism studies; type: in vitro ADME
[8] = tested on: adult patients with solid tumors; settings: cited from earlier work
[9] = highest dose level (450 mg/m^2)
[10] = Cohorts 1 & 2, 17-AAG 100 mg/m^2, Max
[11] = Cohorts 1 & 2, 17-AAG 100 mg/m^2, Mean
[12] = Cohorts 1 & 2, 17-AAG 100 mg/m^2, Median
[13] = Cohorts 1 & 2, 17-AAG 100 mg/m^2, Min
[14] = Cohorts 3 & 4, 17-AAG 150 mg/m^2, Max
[15] = Cohorts 3 & 4, 17-AAG 150 mg/m^2, Mean
[16] = Cohorts 3 & 4, 17-AAG 150 mg/m^2, Median
[17] = Cohorts 3 & 4, 17-AAG 150 mg/m^2, Min

C=CCNC1=C2C[C@@H](C)C[C@H](OC)[C@H](O)[C@@H](C)/C=C(\C)[C@H](OC(N)=O)[C@@H](OC)/C=C\C=C(/C)C(=O)NC(=CC1=O)C2=O [17-AAG, 17-Allylamino-17-demethoxygeldanamycin]
mean peak plasma level ([1]; 450 mg/m^2): 8,998 μg/L | mean volume of distribution ([1]; 450 mg/m^2): 142.6 L | induction of the co-chaperone protein Hsp70 ([1]; 320-450 mg/m^2/week): 8 of 9 | CDK4 depletion in tumor biopsies ([1]; at 24 hours): 8 out of 9 | Raf-1 depletion in tumor biopsies ([1]; at 24 hours): 4 out of 6 | period plasma 17-AAG concentrations remained above 120 nM [1, 9]: > 24 h | plasma 17-AAG concentrations [1, 9]: exceeded 10 μM | complete or partial responses ([1]; in vivo): No complete or partial responses | dose at which dose limiting toxicity was observed ([1]; once weekly, grade ¾ elevation of AST): 450 mg/m^2/week | stable disease ([1]; patients treated at 320-450 mg/m^2): two showed radiologically documented long term stable disease | levels of Hsp90 client proteins ([2]; during therapy): unchanged during therapy | objective tumor responses ([2]; to date): No objective tumor responses | MTD ([2]; weekly 17-AAG, 3 weeks out of a 4 week cycle): 308 mg/m^2 | dose reached without significant toxicity ([2]; weekly dosing): 112 mg/m^2 | effect of exposure on client proteins [3]: depletion of erbB2 and destabilization of Raf-1 and mutant p53 | effect of exposure on client proteins (MEXF 276L melanoma cells): depletion of Hsp90 and down-regulation of Raf-1 and erbB2 | effect of exposure on client proteins (NSCLC cells): depletion of erbB1 (EGFR) and erbB2 (p185) levels | effect of exposure on client proteins (leukemia cells): down-regulation of intracellular Bcr-Abl and c-Raf proteins and reduction of Akt kinase activity | survival analysis [4]: significantly prolonged median overall survival | toxicities observed ([5]; dose of 395 mg/m^2): nausea and vomiting secondary to pancreatitis and grade 3 fatigue | 17-AAG metabolized to 17-AG (metabolic clearance) ([5]; population PK analysis): 46.4% | Vd (volume of distribution), central compartment ([5]; population PK analysis): 24.2 L | Vd (volume of distribution), peripheral compartment ([5]; population PK analysis): 89.6 L | objective tumor responses ([5]; to date): No objective tumor responses | AUCext (clinical; [10]): 10.80% | AUCextra (clinical; [10]): 608.6 ng·h/mL | AUClast (clinical; [10]): 7,248.8 ng/mL * h | AUCtotal (clinical; [10]): 7,857.4 ng/mL * h | Cmax (clinical; [10]): 2,620 ng/mL | MRT (clinical; [10]): 6.04 h | Tmax (clinical; [10]): 3 h | t1/2 (clinical; [10]): 5.16 h | AUCext (clinical; [11]): 6% | AUCtotal (clinical; [11]): 3,805 ng/mL * h | Clearance (clinical; [11]): 28.63 L/h/m^2 | Vss (clinical; [11]): 93.88 L/m^2 | Vz (clinical; [11]): 104.58 L/m^2 | AUCext (clinical; [12]): 6.10% | AUCtotal (clinical; [12]): 3,513.8 ng/mL * h | Clearance (clinical; [12]): 28.46 L/h/m^2 | Vss (clinical; [12]): 79.65 L/m^2 | Vz (clinical; [12]): 99.17 L/m^2 | AUCext (clinical; [13]): 2.54% | AUCextra (clinical; [13]): 87.9 ng·h/mL | AUClast (clinical; [13]): 2,231.7 ng/mL * h | AUCtotal (clinical; [13]): 2,380.5 ng/mL * h | Cmax (clinical; [13]): 755 ng/mL | MRT (clinical; [13]): 2.37 h | Tmax (clinical; [13]): 0.5 h | t1/2 (clinical; [13]): 1.72 h | AUCext (clinical; [14]): 10.5% | AUCextra (clinical; [14]): 595 ng·h/mL | AUClast (clinical; [14]): 17,650 ng/mL * h | AUCtotal (clinical; [14]): 18,246 ng/mL * h | Cmax (clinical; [14]): 9,540 ng/mL | MRT (clinical; [14]): 6.0 h | Tmax (clinical; [14]): 2.17 h | t1/2 (clinical; [14]): 5.7 h | AUCext (clinical; [15]): 5% | AUCtotal (clinical; [15]): 6,030 ng/mL * h | Clearance (clinical; [15]): 28.94 L/h/m^2 | Vss (clinical; [15]): 80.89 L/m^2 | Vz (clinical; [15]): 94.79 L/m^2 | AUCext (clinical; [16]): 3.8% | AUCtotal (clinical; [16]): 5,071 ng/mL * h | Clearance (clinical; [16]): 29.6 L/h/m^2 | Vss (clinical; [16]): 84.3 L/m^2 | Vz (clinical; [16]): 93.7 L/m^2 | AUCext (clinical; [17]): 0.9% | AUCextra (clinical; [17]): 54 ng·h/mL | AUClast (clinical; [17]): 3,152 ng/mL * h | AUCtotal (clinical; [17]): 3,294 ng/mL * h | Cmax (clinical; [17]): 1,830 ng/mL | MRT (clinical; [17]): 1.5 h | Tmax (clinical; [17]): 0.5 h | t1/2 (clinical; [17]): 1.6 h | Total systemic clearance (clinical; cohorts 1-4 combined): 28.83±8.51 L/h/m^2 | distributive volume VSS (clinical; cohorts 1-4 combined): 85.25±31.60 L/m^2 | distributive volume VZ (clinical; cohorts 1-4 combined): 98.05±36.41 L/m^2 | Clearance (clinical; human, in vivo, 100 mg/m2): 924 mL/min | Vd (clinical; human, in vivo, 100 mg/m2, Vss, Cohorts 1 & 2, 17-AAG 100 mg/m^2, Median): 159 L | half-life (clinical; human, in vivo, 150 mg/m2): 132 min | Vd (clinical; human, in vivo, 150 mg/m2, Vss, Cohorts 3 & 4, 17-AAG 150 mg/m^2, Mean): 143 L | Vd (clinical; human, in vivo, 150 mg/m2, Vz, Cohorts 3 & 4, 17-AAG 150 mg/m^2, Median): 172 L | Vd (clinical; human, in vivo, distributive volume VZ, cohorts 1-4 combined): 175 ± 68.2 L | AUC (clinical; human, plasma, intravenous, 100 mg/m2, AUCextra, Cohorts 1 & 2, 17-AAG 100 mg/m^2, Mean): 225 ng·h/mL | AUC (clinical; human, plasma, intravenous, 100 mg/m2, AUCextra, Cohorts 1 & 2, 17-AAG 100 mg/m^2, Median): 166 ng·h/mL | AUC(0-t) (clinical; human, plasma, intravenous, 100 mg/m2, AUClast, Cohorts 1 & 2, 17-AAG 100 mg/m^2, Mean): 3580 ng·h/mL | AUC(0-t) (clinical; human, plasma, intravenous, 100 mg/m2, AUClast, Cohorts 1 & 2, 17-AAG 100 mg/m^2, Median): 3350 ng·h/mL | Clearance (clinical; human, plasma, intravenous, 100 mg/m2, Clearance, Cohorts 1 & 2, 17-AAG 100 mg/m^2, Mean): 879 mL/min | Cmax (clinical; human, plasma, intravenous, 100 mg/m2, Cmax, Cohorts 1 & 2, 17-AAG 100 mg/m^2, Mean): 1790 ng/mL | Cmax (clinical; human, plasma, intravenous, 100 mg/m2, Cmax, Cohorts 1 & 2, 17-AAG 100 mg/m^2, Median): 1740 ng/mL | MRT (clinical; human, plasma, intravenous, 100 mg/m2, MRT, Cohorts 1 & 2, 17-AAG 100 mg/m^2, Mean): 3.32 h | MRT (clinical; human, plasma, intravenous, 100 mg/m2, MRT, Cohorts 1 & 2, 17-AAG 100 mg/m^2, Median): 2.89 h | Tmax (clinical; human, plasma, intravenous, 100 mg/m2, Tmax, Cohorts 1 & 2, 17-AAG 100 mg/m^2, Mean): 1 h | Tmax (clinical; human, plasma, intravenous, 100 mg/m2, Tmax, Cohorts 1 & 2, 17-AAG 100 mg/m^2, Median): 1 h | Vd (clinical; human, plasma, intravenous, 100 mg/m2, Vss, Cohorts 1 & 2, 17-AAG 100 mg/m^2, Mean): 174 L | Vd (clinical; human, plasma, intravenous, 100 mg/m2, Vz, Cohorts 1 & 2, 17-AAG 100 mg/m^2, Mean): 193 L | Vd (clinical; human, plasma, intravenous, 100 mg/m2, Vz, Cohorts 1 & 2, 17-AAG 100 mg/m^2, Median): 188 L | half-life (clinical; human, plasma, intravenous, 100 mg/m2, t1/2, Cohorts 1 & 2, 17-AAG 100 mg/m^2, Mean): 149 min | half-life (clinical; human, plasma, intravenous, 100 mg/m2, t1/2, Cohorts 1 & 2, 17-AAG 100 mg/m^2, Median): 137 min | AUC (clinical; human, plasma, intravenous, 150 mg/m2, AUCextra, Cohorts 3 & 4, 17-AAG 150 mg/m^2, Mean): 256 ng·h/mL | AUC (clinical; human, plasma, intravenous, 150 mg/m2, AUCextra, Cohorts 3 & 4, 17-AAG 150 mg/m^2, Median): 199 ng·h/mL | AUC(0-t) (clinical; human, plasma, intravenous, 150 mg/m2, AUClast, Cohorts 3 & 4, 17-AAG 150 mg/m^2, Mean): 5770 ng·h/mL | AUC(0-t) (clinical; human, plasma, intravenous, 150 mg/m2, AUClast, Cohorts 3 & 4, 17-AAG 150 mg/m^2, Median): 4870 ng·h/mL | Clearance (clinical; human, plasma, intravenous, 150 mg/m2, Clearance, Cohorts 3 & 4, 17-AAG 150 mg/m^2, Mean): 850 mL/min | Clearance (clinical; human, plasma, intravenous, 150 mg/m2, Clearance, Cohorts 3 & 4, 17-AAG 150 mg/m^2, Median): 843 mL/min | Cmax (clinical; human, plasma, intravenous, 150 mg/m2, Cmax, Cohorts 3 & 4, 17-AAG 150 mg/m^2, Mean): 3470 ng/mL | Cmax (clinical; human, plasma, intravenous, 150 mg/m2, Cmax, Cohorts 3 & 4, 17-AAG 150 mg/m^2, Median): 2740 ng/mL | MRT (clinical; human, plasma, intravenous, 150 mg/m2, MRT, Cohorts 3 & 4, 17-AAG 150 mg/m^2, Mean): 2.89 h | MRT (clinical; human, plasma, intravenous, 150 mg/m2, MRT, Cohorts 3 & 4, 17-AAG 150 mg/m^2, Median): 2.9 h | Tmax (clinical; human, plasma, intravenous, 150 mg/m2, Tmax, Cohorts 3 & 4, 17-AAG 150 mg/m^2, Mean): 1 h | Tmax (clinical; human, plasma, intravenous, 150 mg/m2, Tmax, Cohorts 3 & 4, 17-AAG 150 mg/m^2, Median): 0.97 h | Vd (clinical; human, plasma, intravenous, 150 mg/m2, Vss, Cohorts 3 & 4, 17-AAG 150 mg/m^2, Median): 151 L | Vd (clinical; human, plasma, intravenous, 150 mg/m2, Vz, Cohorts 3 & 4, 17-AAG 150 mg/m^2, Mean): 166 L | half-life (clinical; human, plasma, intravenous, 150 mg/m2, t1/2, Cohorts 3 & 4, 17-AAG 150 mg/m^2, Mean): 144 min | half-life (clinical; human, plasma, intravenous, Terminal elimination half-life, cohorts 1-4 combined): 146 ± 54 min | Clearance (clinical; human, plasma, intravenous, Total systemic clearance, cohorts 1-4 combined): 860 mL/min | Vd (clinical; human, plasma, intravenous, distributive volume VSS, cohorts 1-4 combined): 153 ± 62.3 L | 17-AAG dose employed without reaching dose limiting toxicity (DLT) in any treated patient [6]: 275 mg/m^2 | effect of exposure on client proteins [7]: depletion of Raf-1, c-Akt, and Erk1/2 | enzymes involved in metabolism (cytochrome P450 enzymes): implicate the involvement of cytochrome P450 enzymes | maximum tolerated dose (MTD) and recommended Phase 2 dose ([8]; daily for 5 days every 3 weeks): 40 mg/m^2 | dose limiting toxicity ([8]; daily x5 schedule): reversible hepatotoxicity | objective tumor responses ([8]; doses up to 110 mg/m^2): No objective tumor responses | VZ ([8]; in vivo): 93 L/m^2 | Clearance ([8]; patients treated at 56 mg/m^2): 19.9 L/h/m^2 | average AUC ([8]; patients treated at 56 mg/m^2): 6,708 nM*h
